From patent publication US12103919B2, “3-(5-oxy)-1-oxoisoindolin-2-yl)piperidine-2,6-dione derivatives and uses thereof” (NOVARTIS AG, priority 2021, dated 2024)
Where two headings read alike, the source gives them in different places.

Assays:
SALL4 = target: T1, SALL4 (Homo sapiens, UniProt Q96SW2+Q9UJQ4); assay: Quantification of SALL4 protein levels in HiBiT tag fusion protein assay; type: cell-based; conditions: for SALL4 Amax: DMSO-normalized, curve-fitted percentage of SALL4-HiBiT remaining at 50 uM, mean over repeats; for DC50: arithmatic mean over number of repeats, 18 hours, top 50 μM, read-out: SALL4 AC50
T1 construct: expressed in transfected cells; host or cells: GripTite 293 MSR cells (293GT), ThermoFisher Scientific, stably transfected by electroporation, blasticidin-selected clones
Protocol: The HiBiT system from Promega was used to develop high-throughput and quantitative assays to measure changes in SALL4 protein levels in response to compounds. The HiBiT tag was derived from a split Nanoluciferase and has the following protein sequence: […] (SEQ ID No: 1). The complementary fragment of Nanoluciferase (known as LgBiT, from Promega), was added to the HiBiT tag to form an active Nanoluciferase enzyme whose activity can be precisely measured. In this way, the levels of a fusion protein with the HiBiT tag can be quantified in cell lysates.
DNA constructs, based on the Invitrogen pLenti6.2/V5 DEST backbone, were constructed with the HiBiT tag upstream of SALL4 and expressed the fusion protein from a CMV promotor.
To ensure moderate and consistent expression of the HiBiT-SALL4 fusion protein across all cells in the population, stable cell lines were derived from clones. GripTite 293 MSR cells (293GT) from ThermoFisher Scientific (Catalog number: CRL-R79507), were stably transfected with prepared constructs via electroporation. Following recovery, cells were selected by 10 ug/mL blasticidin in culture media.
The levels of HiBiT-SALL4 tagged fusion proteins in compound-treated cell lines were measured as follows:
On day 1, cells were diluted to 1.0×10^6 cells/ml in normal growth medium. 20 μL of cell suspension were plated in each well of a solid white 384-well plate. Plates were incubated overnight in a 37° C. and 5% CO2 humidified tissue culture incubator.
On day 2, serial dilutions of compounds were made in 384-well plates. Compound plates were set up with DMSO in columns 1, 2, 23, 24, and 10-point compound dilution series in column 3-12 and column 13-22. 10 mM stock solution of compound were placed into column 3 or 13 and a 1:5 serial dilution was carried out until there was a 10-point dilution series per compound. 100 nL of diluted compounds were transferred into the plated cells by Echo® (Labcyte) acoustic transfer. The highest concentration of compound was 50 μM. Plates were incubated overnight (18 hours) in a 37° C. and 5% CO2 humidified tissue culture incubator.
On day 3, plates were removed from the incubator and allowed to equilibrate at room temperature for 60 minutes. HiBiT substrate (Nano-Glo® HiBit Lytic Detection System, Promega Catalogue number: N3050) was added as described by the manufacturers protocols. Plates were incubated at room temperature for 30 minutes and luminescence was read using an EnVision® reader (PerkinElmer®). Data was analyzed and visualized using the Spotfire® software package.
SALL4 Amax reflects the DMSO-normalized, curve-fitted percentage of SALL4-HiBiT remaining at 50 uM. It was calculated by normalizing DMSO controls to 100%, parametric curve fitting of the dose response data (10-point, 5-fold), followed by calculation of response at 50 uM using the fitted equation.
This assay produced a range of SALL4 AC50 and Amax values over several repeat runs due to normal variations in the assay. For a comparison to the compounds described in PCT/IB2020/062070, the arithmatic mean values are reported over the number of repeats specified. […] The compounds of the present disclosure are therefore expected to have improved toxicological properties (Matyskiela, M. E., Couto, S., Zheng, X. et al. SALL4 mediates teratogenicity as a thalidomide-dependent cereblon substrate. Nat Chem Biol 14, 981-987 (2018); Donovan, K. A. et al. Thalidomide promotes degradation of SALL4, a transcription factor Implicated in Duane Radial Ray syndrome. eLife 2018; 7:e38430).

Fetal Hemoglobin (HbF) = assay: Small molecule HbF induction assay in erythroid-differentiated mPB CD34+ cells (flow cytometry); type: cell-based, human; conditions: highest percentage of cells staining positive for HbF (% HbF+ cells) in fitted dose-response curve; DMSO baseline approximately 30-40%
Protocol: Cryopreserved primary human CD34^+ hematopoietic stem and progenitor cells were obtained from AllCeIIs, LLC. The CD34^+ cells were isolated from the peripheral blood of healthy donors after mobilization by administration of granulocyte colony-stimulating factor. Cells were differentiated ex vivo toward the erythroid lineage using a 2-phase culture method. In the first phase, cells were cultured in Stemspan™ Serum-Free Expansion Media (SFEM) ([…] Technologies Inc.) supplemented with rhSCF (50 ng/mL, Peprotech®, Inc.), rhlL-6 (50 ng/mL, Peprotech®, Inc.), rhlL-3 (50 ng/mL, Peprotech®, Inc.), and rhFlt3L (50 ng/mL, Peprotech®, Inc.), and 1× antibiotic-antimycotic (Life Technologies, Thermo Fisher Scientific) for 6 days at 37° C. with 5% CO2. During the second phase, cells were cultured in erythroid differentiation media at 5,000 cells/mL in the presence of compound for 7 days at 37° C. with 5% […]. Erythroid Differentiation Media is comprised of IMDM (Life Technologies) supplemented with insulin (10 μg/mL. Sigma Aldrich), heparin (2 U/mL Sigma Aldrich), holo-transferrin (330 μg/mL, Sigma Aldrich), human serum AB (5%, Sigma Aldrich), hydrocortisone (1 μM, […] Technologies), rhSCF (100 ng/mL, Peprotech®, Inc.), rhIL-3 (5 ng/mL. Peprotech®, Inc.), rhEPO (3 U/mL, Peprotech®, Inc.), and 1× antibiotic-antimycotic. All compounds were dissolved and diluted into dimethylsulfoxide (DMSO) and were added to culture media for a final concentration of 0.3% DMSO for testing in a 10-point, 1:3 dilution series starting at 10 uM.
For viability analysis, samples were washed and resuspended in phosphate-buffered saline (PBS) and stained with LlVE/DEAD™ Fixable Violet Dead Cell Stain Kit (Life Technologies, L34963) for 20 minutes. Cells were then washed again with PBS and resuspended in PBS supplemented with 2% fetal bovine serum (FBS), and 2 mM EDTA to prepare for cell surface marker analysis. […]
mPB CD34+ cells were expanded for 6 days, then erythroid differentiated in the presence of compound for 7 days. Cells were fixed, stained and analyzed by flow cytometry. […]

WIZ = target: T2, WIZ (Homo sapiens, UniProt O95785+Q96SW2); assay: Quantification of WIZ protein levels in HiBit tag fusion protein assay (293T cells); type: cell-based; parameters: Dmax: dose or concentration left out as unconfirmed
T2 construct: expressed in transfected cells
Summary of the method: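 293T cells stably carrying a single-copy HiBit-WIZ fusion were exposed to compounds for about 18 hours at 37° C., top concentration 25 μM, 10-point 5-fold series. Lysates were complemented with LgBit and luminescence was read. Amax is the DMSO-normalized, curve-fitted percentage of WIZ-HiBit remaining at 25 uM.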

[1] = HEK-293T; DMSO-normalized, curve-fitted percentage of WIZ-HiBit remaining at 25 uM; read-out: WIZ Amax
[2] = HEK-293T; at 25 uM, 100 − Amax; read-out: % degradation of WIZ (100 − Amax)
[3] = WIZ HiBit assay in 293T cells, about 18 hours, 10-point 5-fold dilution, top 25 μM; read-out: WIZ AC50

T1 sequence (Q9UJQ4 whole entry, the tested form may be a part): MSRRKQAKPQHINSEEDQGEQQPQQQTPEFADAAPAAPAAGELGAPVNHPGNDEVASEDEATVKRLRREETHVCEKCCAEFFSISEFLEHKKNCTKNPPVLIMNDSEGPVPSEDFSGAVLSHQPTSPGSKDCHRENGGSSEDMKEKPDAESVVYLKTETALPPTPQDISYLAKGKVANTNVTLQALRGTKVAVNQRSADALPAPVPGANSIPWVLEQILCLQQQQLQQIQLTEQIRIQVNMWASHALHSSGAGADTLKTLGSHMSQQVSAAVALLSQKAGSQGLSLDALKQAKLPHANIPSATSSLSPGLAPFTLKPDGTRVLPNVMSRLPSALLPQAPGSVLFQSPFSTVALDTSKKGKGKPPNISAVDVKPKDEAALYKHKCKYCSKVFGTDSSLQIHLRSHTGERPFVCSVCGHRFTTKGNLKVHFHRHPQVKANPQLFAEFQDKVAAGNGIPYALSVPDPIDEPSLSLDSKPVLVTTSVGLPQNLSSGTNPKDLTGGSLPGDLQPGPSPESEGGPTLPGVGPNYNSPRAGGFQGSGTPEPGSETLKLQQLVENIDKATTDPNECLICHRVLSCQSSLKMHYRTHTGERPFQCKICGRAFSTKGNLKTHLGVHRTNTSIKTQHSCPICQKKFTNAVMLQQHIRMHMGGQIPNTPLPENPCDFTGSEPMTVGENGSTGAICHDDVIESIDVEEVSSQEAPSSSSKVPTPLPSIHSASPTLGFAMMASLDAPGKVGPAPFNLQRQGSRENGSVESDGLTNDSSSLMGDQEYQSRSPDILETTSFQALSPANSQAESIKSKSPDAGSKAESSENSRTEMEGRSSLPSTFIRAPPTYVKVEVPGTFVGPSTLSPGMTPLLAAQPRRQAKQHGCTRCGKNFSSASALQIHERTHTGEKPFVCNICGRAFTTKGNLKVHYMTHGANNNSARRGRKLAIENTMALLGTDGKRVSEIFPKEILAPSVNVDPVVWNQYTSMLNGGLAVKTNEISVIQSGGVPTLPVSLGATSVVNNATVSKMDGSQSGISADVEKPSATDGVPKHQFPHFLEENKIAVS
T1 sequence (Q96SW2 whole entry, the tested form may be a part): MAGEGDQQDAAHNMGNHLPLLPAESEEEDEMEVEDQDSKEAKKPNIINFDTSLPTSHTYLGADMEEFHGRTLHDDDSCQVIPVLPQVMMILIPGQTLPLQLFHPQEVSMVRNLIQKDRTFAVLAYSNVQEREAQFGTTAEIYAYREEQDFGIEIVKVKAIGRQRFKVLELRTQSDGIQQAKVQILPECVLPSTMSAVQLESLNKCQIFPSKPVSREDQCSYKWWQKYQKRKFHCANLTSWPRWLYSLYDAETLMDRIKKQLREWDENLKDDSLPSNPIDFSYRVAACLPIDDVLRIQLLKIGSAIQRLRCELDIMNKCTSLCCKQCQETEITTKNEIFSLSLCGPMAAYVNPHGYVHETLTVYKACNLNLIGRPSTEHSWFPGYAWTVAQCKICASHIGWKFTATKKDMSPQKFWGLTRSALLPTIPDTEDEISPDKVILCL
T1 sequence (Q16531 whole entry partner, the tested form may be a part): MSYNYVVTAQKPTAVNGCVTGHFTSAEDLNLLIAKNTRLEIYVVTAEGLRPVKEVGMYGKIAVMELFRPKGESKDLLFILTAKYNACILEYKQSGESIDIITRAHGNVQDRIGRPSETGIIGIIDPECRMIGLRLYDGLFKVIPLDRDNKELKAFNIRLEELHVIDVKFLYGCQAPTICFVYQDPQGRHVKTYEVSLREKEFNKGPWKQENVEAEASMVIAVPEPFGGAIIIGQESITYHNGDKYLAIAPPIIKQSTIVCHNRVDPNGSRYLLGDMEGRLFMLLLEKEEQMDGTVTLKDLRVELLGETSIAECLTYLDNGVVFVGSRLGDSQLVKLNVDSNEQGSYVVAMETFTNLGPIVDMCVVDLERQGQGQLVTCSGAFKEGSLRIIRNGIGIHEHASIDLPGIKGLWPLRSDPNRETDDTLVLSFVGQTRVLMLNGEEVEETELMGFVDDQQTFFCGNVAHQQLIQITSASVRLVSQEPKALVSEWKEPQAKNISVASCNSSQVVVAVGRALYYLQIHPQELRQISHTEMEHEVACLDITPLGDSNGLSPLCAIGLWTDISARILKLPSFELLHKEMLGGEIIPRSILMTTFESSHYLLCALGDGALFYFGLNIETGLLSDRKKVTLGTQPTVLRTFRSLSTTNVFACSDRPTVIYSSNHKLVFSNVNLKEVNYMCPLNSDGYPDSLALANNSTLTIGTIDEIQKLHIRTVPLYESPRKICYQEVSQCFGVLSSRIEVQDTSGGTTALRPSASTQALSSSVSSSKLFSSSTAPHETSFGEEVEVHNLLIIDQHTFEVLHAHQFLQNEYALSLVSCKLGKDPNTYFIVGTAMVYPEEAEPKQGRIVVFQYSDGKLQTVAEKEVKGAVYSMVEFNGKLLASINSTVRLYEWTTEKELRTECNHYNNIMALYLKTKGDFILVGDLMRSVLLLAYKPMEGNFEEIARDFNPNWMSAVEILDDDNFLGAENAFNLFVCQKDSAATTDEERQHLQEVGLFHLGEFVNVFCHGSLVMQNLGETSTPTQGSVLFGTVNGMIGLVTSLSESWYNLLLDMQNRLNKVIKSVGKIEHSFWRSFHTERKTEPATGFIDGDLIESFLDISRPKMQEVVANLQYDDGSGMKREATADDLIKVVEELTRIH
T2 sequence (O95785 whole entry, the tested form may be a part): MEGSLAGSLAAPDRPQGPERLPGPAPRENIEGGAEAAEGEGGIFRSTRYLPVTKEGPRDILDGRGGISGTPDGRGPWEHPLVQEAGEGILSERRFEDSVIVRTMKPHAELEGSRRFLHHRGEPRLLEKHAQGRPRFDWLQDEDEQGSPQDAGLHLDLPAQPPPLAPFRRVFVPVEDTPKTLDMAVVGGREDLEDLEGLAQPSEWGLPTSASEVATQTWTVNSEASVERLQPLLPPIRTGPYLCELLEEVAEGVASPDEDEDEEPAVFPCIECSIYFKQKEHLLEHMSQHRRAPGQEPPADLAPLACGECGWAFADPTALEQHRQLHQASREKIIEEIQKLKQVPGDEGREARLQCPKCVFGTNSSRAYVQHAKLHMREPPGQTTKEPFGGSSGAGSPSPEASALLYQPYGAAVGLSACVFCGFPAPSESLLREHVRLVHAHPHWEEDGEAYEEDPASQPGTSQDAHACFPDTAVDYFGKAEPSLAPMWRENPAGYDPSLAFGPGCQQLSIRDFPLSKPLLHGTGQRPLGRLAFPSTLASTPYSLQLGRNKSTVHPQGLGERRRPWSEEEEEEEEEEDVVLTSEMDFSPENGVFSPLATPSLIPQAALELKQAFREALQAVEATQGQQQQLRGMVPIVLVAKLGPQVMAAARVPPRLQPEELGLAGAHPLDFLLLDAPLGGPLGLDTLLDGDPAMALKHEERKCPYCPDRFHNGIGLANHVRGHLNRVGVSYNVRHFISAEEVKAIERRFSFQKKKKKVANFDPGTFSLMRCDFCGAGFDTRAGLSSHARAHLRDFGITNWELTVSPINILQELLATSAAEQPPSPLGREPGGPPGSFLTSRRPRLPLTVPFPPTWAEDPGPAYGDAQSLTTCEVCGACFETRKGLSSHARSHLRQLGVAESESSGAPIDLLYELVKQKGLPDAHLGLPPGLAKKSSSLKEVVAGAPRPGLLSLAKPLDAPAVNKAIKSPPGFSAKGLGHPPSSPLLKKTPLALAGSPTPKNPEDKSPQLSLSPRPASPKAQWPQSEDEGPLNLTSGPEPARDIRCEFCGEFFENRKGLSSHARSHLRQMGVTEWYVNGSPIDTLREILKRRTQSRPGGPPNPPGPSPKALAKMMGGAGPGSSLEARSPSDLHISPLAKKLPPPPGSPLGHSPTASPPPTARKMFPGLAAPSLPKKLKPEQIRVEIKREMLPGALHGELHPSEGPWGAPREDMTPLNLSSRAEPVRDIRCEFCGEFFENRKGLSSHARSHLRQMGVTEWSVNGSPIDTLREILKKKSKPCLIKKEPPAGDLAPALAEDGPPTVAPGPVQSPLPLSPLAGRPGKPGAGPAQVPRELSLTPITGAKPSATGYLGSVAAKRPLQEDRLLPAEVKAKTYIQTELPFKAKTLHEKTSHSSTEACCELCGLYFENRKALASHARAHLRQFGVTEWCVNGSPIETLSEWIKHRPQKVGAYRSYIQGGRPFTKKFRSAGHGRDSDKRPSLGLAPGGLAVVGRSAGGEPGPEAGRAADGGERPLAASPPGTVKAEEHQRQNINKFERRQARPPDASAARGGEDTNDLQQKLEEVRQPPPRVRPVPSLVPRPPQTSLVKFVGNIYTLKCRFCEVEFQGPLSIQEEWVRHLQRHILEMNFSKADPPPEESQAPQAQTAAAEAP
T2 sequence (Q96SW2 whole entry, the tested form may be a part): as the sequence (Q96SW2 whole entry, the tested form may be a part) above
T2 sequence (Q16531 whole entry partner, the tested form may be a part): as the sequence (Q16531 whole entry partner, the tested form may be a part) above

SMILES	SALL4 Amax (SALL4) [%]	DC50 (SALL4) [nM]	remaining activity at 25 µM (WIZ; [1]) [%]	Dmax at 25 µM (WIZ; [2]) [%]	DC50 (WIZ; [3]) [nM]	also measured
CCN1CCCC[C@@H]1COc1ccc2c(c1)CN(C1CCC(=O)NC1=O)C2=O (mixture of isomers) [Comparative Example 1, 3-(5-(((R)-1-ethylpiperidin-2-yl)methoxy)-1-oxoisoindolin-2-yl)piperidine-2,6-dione, reference compound]	51.51	160				HbF Amax (Fetal Hemoglobin (HbF)): 64.1%
O=C1CCC(N2Cc3cc(OC[C@H]4CCCCN4CC4CC4)ccc3C2=O)C(=O)N1 (stereo partly drawn) [Comparative Example 3, 3-(5-(((R)-1-(cyclopropylmethyl)piperidin-2-yl)methoxy)-1-oxoisoindolin-2-yl)piperidine-2,6-dione, reference compound]	52.88	130				
CCN1C[C@H](Oc2ccc3c(c2)CN(C2CCC(=O)NC2=O)C3=O)CC[C@@H]1C (stereo partly drawn) [Example 41, 3-(5-(((3R,6S)-1-ethyl-6-methylpiperidin-3-yl)oxy)-1-oxoisoindolin-2-yl)piperidine-2,6-dione]						Dmax (WIZ; HEK-293T, read-out: % degradation of WIZ (100 − Amax)): 88.6%; remaining activity at 25 µM (WIZ; HEK-293T, read-out: WIZ Amax): 11.4%; DC50 (WIZ; read-out: WIZ AC50; WIZ HiBit assay in 293T cells, about 18 hours, 10-point 5-fold dilution, top 25 μM): 0.14 nM; HbF Amax (Fetal Hemoglobin (HbF)): 73.1%
O=C1CCC(N2Cc3cc(O[C@@H]4CCCN(CC5CC5)C4)ccc3C2=O)C(=O)N1 (stereo partly drawn) [Example 13, 3-(5-(((R)-1-(cyclopropylmethyl)piperidin-3-yl)oxy)-1-oxoisoindolin-2-yl)piperidine-2,6-dione]	70.82	140	27.6	72.4	14	DC50 (WIZ; updated arithmatic mean over the number of repeats specified, assay of Example 89; read-out: WIZ AC50): 21 nM
CCN1C[C@@H]2C[C@@H]2[C@H](Oc2ccc3c(c2)CN(C2CCC(=O)NC2=O)C3=O)C1 (relative stereo) [Example 53, 3-(5-(((1R*,5S*,6S*)-3-ethyl-3-azabicyclo[4.1.0]heptan-5-yl)oxy)-1-oxoisoindolin-2-yl)piperidine-2,6-dione]			78.2	21.8	71	
CO[C@H]1C[C@H](CN2CCC[C@@H](Oc3ccc4c(c3)CN(C3CCC(=O)NC3=O)C4=O)C2)C1 (stereo partly drawn) [Example 27, 3-(5-(((R)-1-(((1r,3R)-3-methoxycyclobutyl)methyl)piperidin-3-yl)oxy)-1-oxoisoindolin-2-yl)piperidine-2,6-dione]			60.3	39.7	130	
CCN1CC[C@H](Oc2ccc3c(c2)CN(C2CCC(=O)NC2=O)C3=O)C1 (stereo partly drawn) [Example 40, 3-(5-(((S)-1-ethylpyrrolidin-3-yl)oxy)-1-oxoisoindolin-2-yl)piperidine-2,6-dione]			73.5	26.5	770	
CC(C)N1CCC[C@@H](Oc2ccc3c(c2)CN(C2CCC(=O)NC2=O)C3=O)C1 (stereo partly drawn) [Example 9, 3-(5-(((R)-1-isopropylpiperidin-3-yl)oxy)-1-oxoisoindolin-2-yl)piperidine-2,6-dione]					4.2	Dmax (WIZ; HEK-293T, read-out: % degradation of WIZ (100 − Amax), 100 − Amax): 71.5%; remaining activity at 25 µM (WIZ; HEK-293T, read-out: WIZ Amax, DMSO-normalized, curve-fitted percentage of WIZ-HiBit remaining at 25 uM): 28.5%
